The results in this text go back to PubChem BioAssay AID1259407 (Chemical Carcinogenesis Research Information System (CCRIS), 2018).

The source made the active and inactive calls. No rule for the calls is given here.

This data set relates to CCRIS mutagenicity, Ames/micronucleus/aberration tests. As to the kind of experiment: CCRIS mutagenicity studies.
Setting [1] is: Test System: AMES SALMONELLA TYPHIMURIUM, Strain/Indicator: TA98, Metabolic Activation: NONE, Method: STANDARD PLATE.
[2] abbreviates: Test System: AMES SALMONELLA TYPHIMURIUM, Strain/Indicator: TA100, Metabolic Activation: NONE, Method: STANDARD PLATE.
Where [3] appears, read: Test System: AMES SALMONELLA TYPHIMURIUM, Strain/Indicator: TA100, Metabolic Activation: RAT, LIVER, S-9, AROCLOR 1254, Method: STANDARD PLATE.
The mark [4] stands for this setting: Test System: AMES SALMONELLA TYPHIMURIUM, Strain/Indicator: TA1535, Metabolic Activation: NONE, Method: STANDARD PLATE.
Setting [5] is: Test System: AMES SALMONELLA TYPHIMURIUM, Strain/Indicator: TA1537, Metabolic Activation: NONE, Method: STANDARD PLATE.
Setting [6] is: Test System: Mouse lymphoma, Strain/Indicator: L5178Y (tk+/tk-), Metabolic Activation: None, Method: Suspension/plate.
Where [7] appears, read: Test System: Mouse lymphoma, Strain/Indicator: L5178Y (tk+/tk-), Metabolic Activation: Rat, Liver, S-9, Aroclor 1254, Method: Suspension/plate.

As to `CC(=O)N1CCC[C@H]1C(=O)N(CC(=O)O)N=O`, the mutagenic call is, setting by setting: under setting [1], “inactive; negative”; (Test System: AMES SALMONELLA TYPHIMURIUM, Strain/Indicator: TA98, Metabolic Activation: RAT, LIVER, S-9, AROCLOR 1254, Method: STANDARD PLATE) “inactive; negative”; (Test System: AMES SALMONELLA TYPHIMURIUM, Strain/Indicator: TA100, Metabolic Activation: HOST MEDIATED, Method: STANDARD PLATE) “active; positive”; under setting [2], “active; positive”; under setting [3], “active; positive”; (Test System: AMES SALMONELLA TYPHIMURIUM, Strain/Indicator: TA102, Metabolic Activation: NONE, Method: STANDARD PLATE) “active; positive”. The mutagenic call by setting is: (Test System: AMES SALMONELLA TYPHIMURIUM, Strain/Indicator: TA102, Metabolic Activation: RAT, LIVER, S-9, AROCLOR 1254, Method: STANDARD PLATE) “active; positive”; under setting [4], “active; positive”; (Test System: AMES SALMONELLA TYPHIMURIUM, Strain/Indicator: TA1535, Metabolic Activation: RAT, LIVER, S-9, AROCLOR 1254, Method: STANDARD PLATE) “active; positive”; under setting [5], “inactive; negative”; (Test System: AMES SALMONELLA TYPHIMURIUM, Strain/Indicator: TA1537, Metabolic Activation: RAT, LIVER, S-9, AROCLOR 1254, Method: STANDARD PLATE) “inactive; negative”; (Test System: AMES SALMONELLA TYPHIMURIUM, Strain/Indicator: TA1538, Metabolic Activation: NONE, Method: STANDARD PLATE) “inactive; negative”. The mutagenic call reads like this: (Test System: AMES SALMONELLA TYPHIMURIUM, Strain/Indicator: TA1538, Metabolic Activation: RAT, LIVER, S-9, AROCLOR 1254, Method: STANDARD PLATE) “inactive; negative”; (Test System: CHO/HGPRT, Strain/Indicator: CHO-K1-BH4, Metabolic Activation: NONE) “active; positive”.

As to `Nc1ccn([C@@H]2O[C@H](CO)[C@@H](O)C2(F)F)c(=O)n1`, the mutagenic call was “active; positive (structural changes)” (End Point: CHROMOSOMAL ABERRATIONS, Test System: BONE MARROW, Species: MOUSE, Strain/Sex: SWISS/MALE, FEMALE, Route: INTRAPERITONEAL); “active; positive; (structural changes: breaks, fragments)” (End Point: IN VITRO CHROMOSOMAL ABERRATIONS, Test System: HUMAN PERIPHERAL LYMPHOCYTES, Metabolic Activation: NONE); “active; positive (structural changes)” (End Point: IN VITRO CHROMOSOMAL ABERRATIONS, Test System: HUMAN PERIPHERAL LYMPHOCYTES, Strain/Sex: MALE, FEMALE, Metabolic Activation: NONE); “active; positive” (End Point: MICRONUCLEUS, Test System: BONE MARROW, Species: MOUSE, Strain/Sex: SWISS/MALE, FEMALE, Route: INTRAPERITONEAL).

For `CC(C)(C)Cl`, the mutagenic call was “inactive; negative” under setting [6] and “inactive; negative” under setting [7].

Regarding `NOS(=O)(=O)O`, the mutagenic call by setting is: (Test System: AMES SALMONELLA TYPHIMURIUM, Strain/Indicator: G46, Metabolic Activation: RAT, LIVER, S-9, AROCLOR 1254, Method: STANDARD PLATE) “active; positive”; under setting [3], “inactive; negative”.

Consider `O=S(Cl)Cl`, for which the mutagenic call is “active; positive” (Test System: AMES SALMONELLA TYPHIMURIUM, Strain/Indicator: TA100, Metabolic Activation: HAMSTER, LIVER, S-9, AROCLOR 1254 (2.5-20%), Method: PREINCUBATION); “active; positive” (Test System: AMES SALMONELLA TYPHIMURIUM, Strain/Indicator: TA102, Metabolic Activation: HAMSTER, LIVER, S-9, AROCLOR 1254, Method: PREINCUBATION); “active; positive” (Test System: AMES SALMONELLA TYPHIMURIUM, Strain/Indicator: TA102, Metabolic Activation: RAT, LIVER, S-9, AROCLOR 1254, Method: PREINCUBATION); “active; equivocal (previous evaluation positive)” under setting [6]; “inactive; inconclusive (previous evaluation negative)” under setting [7].

As to `COC(=O)c1cc2c([nH]c3ccc([N+](=O)[O-])cc32)c(-c2ccccc2)n1`, the mutagenic call (Test System: AMES SALMONELLA TYPHIMURIUM, Strain/Indicator: TA98(NR), Metabolic Activation: NONE, Method: STANDARD PLATE) is “inactive; negative” and the mutagenic call (Test System: AMES SALMONELLA TYPHIMURIUM, Strain/Indicator: TA98(NR), Metabolic Activation: RAT, LIVER, S-9, AROCLOR 1254, Method: STANDARD PLATE) is “active; positive”.

In the case of `O=[N+]([O-])c1cccc2nscc12`, the mutagenic call reads like this: under setting [1], “active; positive”; (Test System: AMES SALMONELLA TYPHIMURIUM, Strain/Indicator: TA98, Metabolic Activation: S-9, Method: STANDARD PLATE) “active; positive”; under setting [2], “active; positive”; (Test System: AMES SALMONELLA TYPHIMURIUM, Strain/Indicator: TA100, Metabolic Activation: S-9, Method: STANDARD PLATE (TEST MATERIAL SOLVENT:DMSO)) “active; positive”; under setting [4], “active; positive”; (Test System: AMES SALMONELLA TYPHIMURIUM, Strain/Indicator: TA1535, Metabolic Activation: S-9, Method: STANDARD PLATE) “inactive; negative”. Also, the mutagenic call by setting is: under setting [5], “active; positive”; (Test System: AMES SALMONELLA TYPHIMURIUM, Strain/Indicator: TA1537, Metabolic Activation: S-9, Method: STANDARD PLATE) “inactive; negative”.

As for `Nc1ccc(Cc2ccc(N)c(C(=O)O)c2)cc1C(=O)O`, the mutagenic call was “inactive; negative” (Test System: AMES SALMONELLA TYPHIMURIUM, Strain/Indicator: TA98, Metabolic Activation: NONE, Method: PREINCUBATION); “inactive; negative” (Test System: AMES SALMONELLA TYPHIMURIUM, Strain/Indicator: TA98, Metabolic Activation: RAT, LIVER, S-9, PCB, Method: PREINCUBATION); “inactive; negative” (Test System: AMES SALMONELLA TYPHIMURIUM, Strain/Indicator: TA100, Metabolic Activation: NONE, Method: PREINCUBATION); “inactive; negative” (Test System: AMES SALMONELLA TYPHIMURIUM, Strain/Indicator: TA100, Metabolic Activation: RAT, LIVER, S-9, PCB, Method: PREINCUBATION).

With `C[n+]1c2ccccc2c(N)c2ccccc21`, the mutagenic call by setting is: (Test System: AMES SALMONELLA TYPHIMURIUM, Strain/Indicator: TA1535, Metabolic Activation: NONE, Method: PREINCUBATION) “active; positive”; (Test System: AMES SALMONELLA TYPHIMURIUM, Strain/Indicator: TA1535, Metabolic Activation: RAT, LIVER, S-9, TETRACHLOROBIPHENYL, Method: PREINCUBATION) “active; positive”; (Test System: AMES SALMONELLA TYPHIMURIUM, Strain/Indicator: TA1537, Metabolic Activation: NONE, Method: PREINCUBATION) “active; positive”; (Test System: AMES SALMONELLA TYPHIMURIUM, Strain/Indicator: TA1537, Metabolic Activation: RAT, LIVER, S-9, TETRACHLOROBIPHENYL, Method: PREINCUBATION) “active; positive”; (Test System: AMES SALMONELLA TYPHIMURIUM, Strain/Indicator: TA1538, Metabolic Activation: NONE, Method: PREINCUBATION) “inactive; negative”; (Test System: AMES SALMONELLA TYPHIMURIUM, Strain/Indicator: TA1538, Metabolic Activation: RAT, LIVER, S-9, TETRACHLOROBIPHENYL, Method: PREINCUBATION) “inactive; negative”. In addition, the mutagenic call is “active; positive” (Test System: AMES SALMONELLA TYPHIMURIUM, Strain/Indicator: TA1977, Metabolic Activation: NONE, Method: PREINCUBATION) and “active; positive” (Test System: AMES SALMONELLA TYPHIMURIUM, Strain/Indicator: TA1977, Metabolic Activation: RAT, LIVER, S-9, TETRACHLOROBIPHENYL, Method: PREINCUBATION).
